Assays:
purple nutsedge = test: Test B pre/postemergence purple nutsedge; type: in vivo, Cyperus rotundus
Procedure, shortened: (§1)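 Test chemicals in a non-phytotoxic solvent mixture with surfactant were sprayed preemergence onto planted seeds and postemergence onto plants 2 to 18 cm tall (1- to 4-leaf stage). After twelve to sixteen days in a greenhouse, injury was visually rated against untreated controls from 0 (no effect) to 10 (complete control).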

itchgrass = test: Test D itchgrass; type: in vivo, Rottboellia exaltata; conditions: Preemergence, 0 to 100 scale
Procedure, shortened: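 Scoring used a 0–100 visual injury scale, with 0 meaning no effect and 100 complete control, assessed 14–21 days after application alongside untreated pots. Preemergence treatments went onto sandy loam surfaces of separately potted seeds within a day of sowing.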

winter wheat [1] = test: Test E winter wheat; type: in vivo, Triticum aestivum; conditions: Preemergence
green foxtail [2] = test: Test E green foxtail; type: in vivo, Setaria viridis; conditions: Preemergence
blackgrass = test: Test E blackgrass; type: in vivo, Alopecurus myosuroides; conditions: Preemergence
Green foxtail [3] = test: Test D green foxtail; type: in vivo
Procedure, shortened: (§2)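 Weed seeds planted in sandy loam; species kept apart in individual pots or compartments. Preemergence tests: treatment to soil surface within one day. Greenhouse growth, then visual injury scoring at 14–21 days (0–100).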

crabgrass = test: Test B pre/postemergence crabgrass; type: in vivo, Digitaria sanguinalis
Procedure, shortened: as §1

duck salad = test: Test B flood test duck salad; type: in vivo, Heteranthera limosa
Procedure, shortened: (§3)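 Flood test on plants grown to the 2-leaf stage; treated plants kept in greenhouse twelve to sixteen days, then visually rated against controls on a 0 (no effect) to 10 (complete control) scale.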

dallisgrass = test: Test D dallisgrass; type: in vivo, Paspalum dilatatum; conditions: Preemergence, 0 to 100 scale
Procedure, shortened: as §2

Italian ryegrass = test: Test E Italian ryegrass; type: in vivo, Lolium multiflorum; conditions: Preemergence
winter barley = test: Test E winter barley; type: in vivo, Hordeum vulgare; conditions: Preemergence
Green foxtail [4] = test: Test D green foxtail; type: in vivo; conditions: Preemergence, 0 to 100 scale
Procedure, shortened: as §2

wild oat = test: Test E wild oat; type: in vivo, Avena fatua; conditions: Preemergence
bamyardgrass = test: Test B flood test barnyardgrass; type: in vivo, Echinochloa crus-galli
Procedure, shortened: as §3

winter wheat [5] = test: Test E winter wheat; type: in vivo, Triticum aestivum; conditions: Postemergence
Procedure, shortened: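 Visual evaluation versus untreated controls after about 21 to 28 days in the greenhouse. Compound was in a surfactant-containing non-phytotoxic solvent; postemergence plants were treated at the 1- to 4-leaf stage, grown in a 60:40 sandy loam and potting mix blend.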

[6] = Postemergence, Rate 125 g/ha, scale of 0 to 10 where 0 is no effect and 10 is complete control
[7] = Postemergence, Rate 250 g/ha, scale 0 to 10, 0 no effect, 10 complete control
[8] = Preemergence, Rate 62 g/ha, scale 0 to 10 (0 no effect, 10 complete control)
[9] = Preemergence, Rate 125 g/ha, scale 0 to 10 (0 no effect, 10 complete control)
[10] = Preemergence, Rate 250 g/ha, scale of 0 to 10 where 0 is no effect and 10 is complete control
[11] = Preemergence, Rate 500 g/ha, scale 0 to 10 (0 no effect, 10 complete control)
[12] = Rate 62 g/ha, Postemergence, scale of 0 to 10 where 0 is no effect and 10 is complete control
[13] = Rate 500 g/ha, Postemergence, scale 0 to 10, 0 no effect, 10 complete control
[14] = Rate 16 g/ha, 0 no injury, 100 complete control
[15] = Rate 32 g/ha, 0 no injury, 100 complete control
[16] = Rate 64 g/ha, 0 no injury, 100 complete control
[17] = Rate 125 g/ha, 0 no injury, 100 complete control
[18] = Rate 62 g/ha, 0 to 100 scale, 0 no effect, 100 complete control
[19] = Rate 125 g/ha, 0 to 100 scale (0 no effect, 100 complete control)
[20] = Rate 64 g/ha, Preemergence; 0 to 100 scale, 0 no injury, 100 complete control
[21] = Rate 125 g/ha, Preemergence; 0 to 100 scale, 0 no injury, 100 complete control
[22] = Rate 250 g/ha; Preemergence; 0 to 100 scale
[23] = Rate 500 g/ha, Preemergence; 0 to 100 scale
[24] = Postemergence (flood test species), Rate 125 g/ha, scale of 0 to 10 where 0 is no effect and 10 is complete control
[25] = Rate 62 g/ha, Postemergence section, flood test species, scale of 0 to 10 where 0 is no effect and 10 is complete control
[26] = Rate 250 g/ha, headed Pre-emergence (flood test species), scale 0 to 10 (0 no effect, 10 complete control)
[27] = Rate 500 g/ha, headed Pre-emergence (flood test species), scale 0 to 10 (0 no effect, 10 complete control)
[28] = Rate 500 g/ha, listed under Postemergence (flood test species), scale 0 to 10, 0 no effect, 10 complete control
[29] = Rate 1000 g/ha, Pre-emergence (as headed), scale 0 to 10
[30] = flood test, listed under Postemergence, Rate 250 g/ha, scale 0 to 10, 0 no effect, 10 complete control
[31] = Postemergence, Rate 62 g/ha, scale 0 to 10, 0 is no effect, 10 is complete control
[32] = Rate 125 g/ha, Postemergence section (flood test species), scale 0 to 10, 0 no effect, 10 complete control
[33] = Rate 250 g/ha, 0 to 100 scale (0 no effect, 100 complete control)

CCn1c(=O)on(C(=O)N(c2ccc(Cl)cc2)C(C)C)c1=O [Compound 108]
Nutsedge plant response rating (purple nutsedge; [6]): 3 | Nutsedge plant response rating (purple nutsedge; [7]): 4 | Nutsedge plant response rating (purple nutsedge; [8]): 0 | Plant response rating, Nutsedge (purple nutsedge; [9]): 0 | Plant response rating, Nutsedge (purple nutsedge; [10]): 0 | Nutsedge plant response rating (purple nutsedge; [11]): 0 | Nutsedge plant response rating (purple nutsedge; [12]): 0 | Nutsedge plant response rating (purple nutsedge; [13]): 4 | Plant response rating, Itchgrass (itchgrass; [14]): 0 | Plant response rating, Itchgrass (itchgrass; [15]): 20 | Plant response rating, Itchgrass (itchgrass; [16]): 30 | Plant response rating, Itchgrass (itchgrass; [17]): 40 | Plant response rating, Itchgrass (itchgrass; Rate 250 g/ha): 98 | Plant response rating, Itchgrass (itchgrass; Rate 500 g/ha): 100 | Plant response rating, Wheat (winter) (winter wheat [1]; [18]): 0 | Plant response rating, Wheat (winter) (winter wheat [1]; [19]): 10 | Plant response rating, Wheat (winter) (winter wheat [1]; Rate 250 g/ha, 0 to 100 scale): 10 | Plant response rating, Green foxtail (green foxtail [2]; [18]): 65 | Plant response rating, Green foxtail (green foxtail [2]; Rate 250 g/ha, 0 to 100 scale): 90 | Plant response rating, Blackgrass (blackgrass; [18]): 40 | Plant response rating, Blackgrass (blackgrass; [19]): 75 | Plant response rating, Blackgrass (blackgrass; Rate 250 g/ha, 0 to 100 scale): 90 | Plant response rating, Green foxtail (Green foxtail [3]; Preemergence; Rate 16 g/ha; 0 to 100 scale, 0 no injury, 100 complete control): 40 | Plant response rating, Green foxtail (Green foxtail [3]; Preemergence; Rate 32 g/ha; 0 to 100 scale, 0 no injury, 100 complete control): 100 | Plant response rating, Green foxtail (Green foxtail [3]; Rate 16 g/ha; Preemergence; 0 to 100 scale, 0 no injury, 100 complete control): 40 | Plant response rating, Green foxtail (Green foxtail [3]; Rate 32 g/ha; Preemergence; 0 to 100 scale, 0 no injury, 100 complete control): 100 | Green foxtail plant response rating (Green foxtail [3]; [20]): 100 | Plant response rating, Green foxtail (Green foxtail [3]; [20]): 100 | Green foxtail plant response rating (Green foxtail [3]; [21]): 100 | Plant response rating, Green foxtail (Green foxtail [3]; [21]): 100 | Plant response rating, Green foxtail (Green foxtail [3]; [22]): 100 | Plant response rating, Green foxtail (Green foxtail [3]; [23]): 100 | Crabgrass plant response rating (crabgrass; [6]): 8 | Crabgrass plant response rating (crabgrass; [7]): 8 | Crabgrass plant response rating (crabgrass; [8]): 7 | Plant response rating, Crabgrass (crabgrass; [9]): 9 | Plant response rating, Crabgrass (crabgrass; [10]): 9 | Crabgrass plant response rating (crabgrass; [11]): 10 | Crabgrass plant response rating (crabgrass; [12]): 4 | Crabgrass plant response rating (crabgrass; [13]): 9 | Ducksalad plant response rating (duck salad; [24]): 0 | Ducksalad plant response rating (duck salad; [25]): 0 | Ducksalad plant response rating (duck salad; [26]): 0 | Plant response rating, Ducksalad (duck salad; [27]): 0 | Ducksalad plant response rating (duck salad; [28]): 0 | Ducksalad plant response rating (duck salad; [29]): 0 | Ducksalad plant response rating (duck salad; Rate 2000 g/ha, Pre-emergence (as headed), scale 0 to 10): 0 | Ducksalad plant response rating (duck salad; [30]): 0 | Plant response rating, Dallisgrass (dallisgrass; [14]): 40 | Plant response rating, Dallisgrass (dallisgrass; [15]): 50 | Plant response rating, Dallisgrass (dallisgrass; [16]): 100 | Plant response rating, Dallisgrass (dallisgrass; [17]): 100 | Plant response rating, Dallisgrass (dallisgrass; Rate 250 g/ha): 100 | Plant response rating, Dallisgrass (dallisgrass; Rate 500 g/ha): 100 | Plant response rating, I. Ryegrass (Italian ryegrass; [18]): 20 | Plant response rating, I. Ryegrass (Italian ryegrass; [19]): 45 | Plant response rating, I. Ryegrass (Italian ryegrass; Rate 250 g/ha, 0 to 100 scale): 95 | Plant response rating, Barley (winter) (winter barley; [18]): 10 | Plant response rating, Barley (winter) (winter barley; [19]): 20 | Plant response rating, Barley (winter) (winter barley; Rate 250 g/ha, 0 to 100 scale): 10 | Plant response rating, Green foxtail (Green foxtail [4]; Rate 250 g/ha): 100 | Plant response rating, Green foxtail (Green foxtail [4]; Rate 500 g/ha): 100 | Plant response rating, Wild oat (wild oat; [18]): 15 | Plant response rating, Wild oat (wild oat; [19]): 30 | Barnyardgrass plant response rating (bamyardgrass; [31]): 0 | Barnyardgrass plant response rating (bamyardgrass; [32]): 0 | Barnyardgrass plant response rating (bamyardgrass; [26]): 0 | Plant response rating, Barnyardgrass (bamyardgrass; [27]): 0 | Barnyardgrass plant response rating (bamyardgrass; [28]): 0 | Barnyardgrass plant response rating (bamyardgrass; [29]): 0 | Barnyardgrass plant response rating (bamyardgrass; Rate 2000 g/ha, Pre-emergence (as headed), scale 0 to 10, 0 no effect, 10 complete control): 0 | Barnyardgrass plant response rating (bamyardgrass; [30]): 0 | Plant response rating, Wheat (winter) (winter wheat [5]; Rate 62 g/ha, 0 to 100 scale): 0 | Plant response rating, Wheat (winter) (winter wheat [5]; Rate 125 g/ha, 0 to 100 scale): 20 | Plant response rating, Wheat (winter) (winter wheat [5]; [33]): 40

CC(C)N(C(=O)n1oc(=O)n(C2CCCCC2)c1=O)c1ccc(F)cc1 [Compound 110]
Nutsedge plant response rating (purple nutsedge; [6]): 0 | Nutsedge plant response rating (purple nutsedge; [7]): 0 | Nutsedge plant response rating (purple nutsedge; [8]): 0 | Plant response rating, Nutsedge (purple nutsedge; [9]): 0 | Plant response rating, Nutsedge (purple nutsedge; [10]): 0 | Nutsedge plant response rating (purple nutsedge; [11]): 0 | Nutsedge plant response rating (purple nutsedge; [12]): 0 | Nutsedge plant response rating (purple nutsedge; [13]): 0 | Plant response rating, Itchgrass (itchgrass; Rate 250 g/ha): 40 | Plant response rating, Itchgrass (itchgrass; Rate 500 g/ha): 40 | Plant response rating, Wheat (winter) (winter wheat [1]; [18]): 0 | Plant response rating, Wheat (winter) (winter wheat [1]; [19]): 0 | Plant response rating, Wheat (winter) (winter wheat [1]; Rate 250 g/ha, 0 to 100 scale): 0 | Plant response rating, Green foxtail (green foxtail [2]; [18]): 30 | Plant response rating, Green foxtail (green foxtail [2]; [19]): 60 | Plant response rating, Green foxtail (green foxtail [2]; Rate 250 g/ha, 0 to 100 scale): 85 | Plant response rating, Blackgrass (blackgrass; [18]): 20 | Plant response rating, Blackgrass (blackgrass; [19]): 50 | Plant response rating, Blackgrass (blackgrass; Rate 250 g/ha, 0 to 100 scale): 60 | Plant response rating, Green foxtail (Green foxtail [3]; [22]): 100 | Plant response rating, Green foxtail (Green foxtail [3]; [23]): 100 | Crabgrass plant response rating (crabgrass; [6]): 3 | Crabgrass plant response rating (crabgrass; [7]): 3 | Crabgrass plant response rating (crabgrass; [8]): 3 | Plant response rating, Crabgrass (crabgrass; [9]): 3 | Plant response rating, Crabgrass (crabgrass; [10]): 9 | Crabgrass plant response rating (crabgrass; [11]): 10 | Crabgrass plant response rating (crabgrass; [12]): 2 | Crabgrass plant response rating (crabgrass; [13]): 8 | Ducksalad plant response rating (duck salad; [24]): 0 | Ducksalad plant response rating (duck salad; [25]): 0 | Ducksalad plant response rating (duck salad; [28]): 0 | Ducksalad plant response rating (duck salad; [30]): 0 | Plant response rating, Dallisgrass (dallisgrass; Rate 250 g/ha): 100 | Plant response rating, Dallisgrass (dallisgrass; Rate 500 g/ha): 100 | Plant response rating, I. Ryegrass (Italian ryegrass; [18]): 0 | Plant response rating, I. Ryegrass (Italian ryegrass; [19]): 0 | Plant response rating, I. Ryegrass (Italian ryegrass; Rate 250 g/ha, 0 to 100 scale): 20 | Plant response rating, Barley (winter) (winter barley; [18]): 0 | Plant response rating, Barley (winter) (winter barley; [19]): 0 | Plant response rating, Barley (winter) (winter barley; Rate 250 g/ha, 0 to 100 scale): 5 | Plant response rating, Green foxtail (Green foxtail [4]; Rate 250 g/ha): 100 | Plant response rating, Green foxtail (Green foxtail [4]; Rate 500 g/ha): 100 | Plant response rating, Wild oat (wild oat; [18]): 0 | Plant response rating, Wild oat (wild oat; [19]): 0 | Barnyardgrass plant response rating (bamyardgrass; [31]): 0 | Barnyardgrass plant response rating (bamyardgrass; [32]): 0 | Barnyardgrass plant response rating (bamyardgrass; [28]): 0 | Barnyardgrass plant response rating (bamyardgrass; [30]): 0 | Plant response rating, Wheat (winter) (winter wheat [5]; Rate 62 g/ha, 0 to 100 scale): 0 | Plant response rating, Wheat (winter) (winter wheat [5]; Rate 125 g/ha, 0 to 100 scale): 0 | Plant response rating, Wheat (winter) (winter wheat [5]; [33]): 0
